Data reported in article PMC11111691, “Cystine-knot peptide inhibitors of HTRA1 bind to a cryptic pocket within the active site region” (Nature Communications, 2024).
Positions of bridges follow the written chain, without caps; N, C: chain ends. Residues, ends and D or L forms follow the SMILES beside them.

Key:
HTRA4^PD/PDZ, HTRA4^FL [1] = target: T1, HTRA4^PD/PDZ, HTRA4^FL (Homo sapiens, UniProt P83105); test: Fluorescence-quenched casein-BODIPY assay, HTRA4; format: biochemical; conditions: 30 nM HTRA4^FL, 2 µM CKP (0.5 mM 7mer-ABP)
T1 construct: purchased Abcam (FL form); the PD/PDZ form was made in house in E. coli ab134444
T1 sequence (P83105 32-476): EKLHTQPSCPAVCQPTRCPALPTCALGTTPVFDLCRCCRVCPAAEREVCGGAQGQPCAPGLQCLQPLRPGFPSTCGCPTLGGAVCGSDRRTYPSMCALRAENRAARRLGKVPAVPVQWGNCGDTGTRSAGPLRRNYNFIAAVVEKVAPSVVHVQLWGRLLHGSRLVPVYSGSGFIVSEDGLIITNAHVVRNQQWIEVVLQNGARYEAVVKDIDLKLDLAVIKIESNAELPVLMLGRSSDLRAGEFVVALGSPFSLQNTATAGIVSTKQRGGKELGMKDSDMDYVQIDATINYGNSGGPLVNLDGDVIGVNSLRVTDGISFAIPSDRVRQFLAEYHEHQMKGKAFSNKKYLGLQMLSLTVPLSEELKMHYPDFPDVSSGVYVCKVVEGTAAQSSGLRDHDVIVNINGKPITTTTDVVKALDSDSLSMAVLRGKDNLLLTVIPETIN
Protocol: (§1) The fluorescence-quenched casein-BODIPY® assay (EnzCheck®, Thermo Fisher Scientific) was carried out in TNC buffer (50 mM Tris pH 8.0, 200 mM NaCl, 0.25% CHAPS) at 37 °C in 96-well black optical bottom plates (Nalge Nunc Int., Rochester, NY). Enzymes were incubated with CKPs or DMSO control for 15 min prior to addition of casein substrate. The reactant concentrations were: 30 nM HTRA1^FL, 30 nM HTRA1^PD/PDZ, 30 nM HTRA1^PD, 30 nM HTRA2^PD/PDZ, 30 nM HTRA3^FL, 100 nM HTRA3^PD/PDZ, 30 nM HTRA4^FL, 300 nM HTRA4^PD/PDZ, 2 µM CKP, 5 µg/ml casein substrate and 0.25% DMSO. For selectivity assays, 0.5 mM 7mer-ABP was used as positive control. The kinetics of substrate cleavage were measured at 37 °C on a SpectraMax M5 microplate reader (Molecular Devices) with excitation of 485 nm and emission of 530 nm for 30 min (HTRA1 and HTRA2) or 5 h (HTRA3 and HTRA4). The determined initial rates of cleavage were expressed as percent of control (DMSO control) after subtracting the baseline rates (without enzyme).

HTRA4^PD/PDZ, HTRA4^FL [2] = target: T2, HTRA4^PD/PDZ, HTRA4^FL (Homo sapiens, UniProt P83105); test: Fluorescence-quenched casein-BODIPY assay, HTRA4; format: biochemical; conditions: 300 nM HTRA4^PD/PDZ, 2 µM CKP (0.5 mM 7mer-ABP)
T2 construct: purchased Abcam (FL form); the PD/PDZ form was made in house in E. coli ab134444
T2 sequence (P83105 153-476): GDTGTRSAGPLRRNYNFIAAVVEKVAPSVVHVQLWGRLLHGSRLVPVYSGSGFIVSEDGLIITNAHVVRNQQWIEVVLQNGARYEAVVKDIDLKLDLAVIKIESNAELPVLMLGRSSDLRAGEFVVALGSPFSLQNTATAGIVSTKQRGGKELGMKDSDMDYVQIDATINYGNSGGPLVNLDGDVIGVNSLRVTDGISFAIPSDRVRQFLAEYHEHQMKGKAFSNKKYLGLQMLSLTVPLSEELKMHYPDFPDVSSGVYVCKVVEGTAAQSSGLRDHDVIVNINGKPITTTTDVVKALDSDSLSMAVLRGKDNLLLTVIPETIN
Protocol: as §1

HTRA2^PD/PDZ = target: T3, HTRA2^PD/PDZ (Homo sapiens, UniProt O43464); test: H2-OPT selectivity assay, HTRA2; format: biochemical; conditions: 1 nM HTRA2^PD/PDZ, 2 µM CKP (0.5 mM 7mer-ABP), 5 µM H2-OPT
T3 construct: Human HTRA2^PD/PDZ (A134-E458) was from R & D Systems; purchased R & D Systems 1458-HT-100
T3 sequence (O43464 134-458): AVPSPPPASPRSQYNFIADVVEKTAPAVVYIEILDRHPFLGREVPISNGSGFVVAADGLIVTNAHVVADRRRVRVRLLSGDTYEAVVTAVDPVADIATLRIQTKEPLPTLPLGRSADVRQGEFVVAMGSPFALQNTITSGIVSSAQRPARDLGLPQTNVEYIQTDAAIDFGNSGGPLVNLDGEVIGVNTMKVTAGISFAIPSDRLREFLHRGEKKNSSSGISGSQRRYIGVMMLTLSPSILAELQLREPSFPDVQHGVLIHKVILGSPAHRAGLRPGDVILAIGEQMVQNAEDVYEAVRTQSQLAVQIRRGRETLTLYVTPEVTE
Protocol: Assays with the fluorescence-quenched synthetic substrate Mca-IRRVSYSFK(Dnp)K (H2-OPT)[38],[60] were carried out essentially as described. CKP stock solutions in DMSO were diluted in TNC buffer (dilution series for IC50 determinations, or final concentration of 2 µM for selectivity assay or as indicated for HTRA1/4 mutants) and incubated with enzymes in 96-well black optical bottom plates for 60 min at 37 °C. For selectivity experiments we used the 7mer-ABP as inhibitor, which was incubated with the proteases for 15 min at 37 °C. A 10 mM stock solution of H2-OPT in DMSO was diluted with water, prewarmed at 37 °C and then added to the CKP-enzyme mixtures. The final concentrations in the reaction mixtures were: 1 nM HTRA1^FL, 3 nM HTRA1^PD/PDZ, 1 nM HTRA1^PD, 1 nM HTRA2^PD/PDZ, 3 nM HTRA3^FL, 60 nM HTRA3^PD/PDZ, 6 nM HTRA4^FL, 1 µM HTRA4^PD/PDZ, 1 nM mouse HTRA1^PD, 25 nM HTRA1^PD-A202Y, 1 µM HTRA4^PD/PDZ-Y200A, 0.5 mM 7mer-ABP, 5 µM H2-OPT, and 0.25% DMSO. The kinetics of substrate cleavage was measured at 37 °C on a SpectraMax M5 microplate reader with excitation of 328 nm and emission of 393 nm. The determined initial rates of cleavage were expressed as percent of control (DMSO control) after subtracting the baseline rates (without enzyme). IC50 values were determined by Sigmoidal 4PL modeling of multiple data points from serial dilutions of CKPs using Prism 9 software (GraphPad). […]

MDCK monolayer = test: MDCK trans-well cell permeability assay; format: in vitro ADME, canine; conditions: MDCK trans-well, apical to basolateral, up to 50 µM, 16 h, mass spectrometry
Protocol: We carried out a cell permeability study using a MDCK trans-well assay, which is commonly
used at Genentech for permeability screening of compounds . This assay measures the flux of test
compound (Papp, apparent permeability) across a MDCK monolayer from the apical to the
basolateral compartment over a 16 h period.
sensitive mass spectrometry method .
10x10-6 cm/s and compounds with Papp values of <1x10-6 cm/s are considered to be of low
Protocol of permeability assay:
Experiments were carried out as described (Chen et al. Evaluating the utility of canine Mdr1 knockout
Madin-Darby canine kidney I cells in permeability screening and efflux substrate determination, Mol
Cells were seeded in 96-well Corning Transwell plates (PET membrane, 1 µm pore size) at 75,000 cells
per well and grown in DMEM media supplemented with 10% FBS, 1% pen-strep and 1x Glutamax at
37C, 5% CO2 for 48 h to ensure monolayer formation. Stock solutions of the three CKPs 1B3, 1D3-ENI
and 1G10-ENI were diluted in Hank's Balanced Salt solution containing 25 mM HEPES, pH 7.4 and 25
µM of the monolayer integrity marker lucifer yellow. CKPs at a concentration of 50 µM were added to
the apical (donor) chamber and the CKP the apparent permeability (Papp) was determined by quantifying
the amount of CKP in the basolateral (receiver) chamber after 16 h incubation at 37C, 5% CO2. The
samples from the basolateral chamber were supplemented with the experiment analytical internal standard
(100 nM propranolol in 50% ACN:50% water with 0.1% formic acid) and then injected in a Sciex Zeno
TOF 7600 mass spectrometer using TOF/MS mode.

Row | Inhibition of HTRA4^FL, casein-BODIPY cleavage (% of control) (HTRA4^PD/PDZ, HTRA4^FL [1]) | Inhibition of HTRA4^PD/PDZ, casein-BODIPY cleavage (% of control) (HTRA4^PD/PDZ, HTRA4^FL [2]) | Inhibition of HTRA2^PD/PDZ, H2-OPT (% of control) (HTRA2^PD/PDZ) | Molecule | Cell permeability in the MDCK cell assay (MDCK monolayer)
1 | significantly inhibited | significantly inhibited | significantly inhibited | DPMFKLV-phosphonate [7mer-ABP] | –
2 | – | – | – | CC[C@H](C)[C@H](NC(=O)[C@@H]1CCCN1C(=O)[C@H](CC(=O)O)NC(=O)[C@H](C)NC(=O)[C@@H](N)Cc1c[nH]cn1)C(=O)N[C@H]1CSSC[C@@H]2NC(=O)[C@H](Cc3ccccc3)NC(=O)[C@H](Cc3c[nH]c4ccccc34)NC(=O)[C@H](C)NC(=O)CNC(=O)[C@H](CO)NC(=O)[C@@H]3CSSC[C@@H](C(=O)NCC(=O)N4CCC[C@H]4C(=O)N[C@@H](Cc4ccc(O)cc4)C(=O)N[C@H](C(=O)NCC(N)=O)C(C)C)NC(=O)[C@H](CO)NC(=O)[C@H](Cc4c[nH]c5ccccc45)NC(=O)[C@H]([C@@H](C)O)NC(=O)[C@H](C)NC(=O)[C@H](Cc4ccc(O)cc4)NC(=O)[C@H](Cc4ccc(O)cc4)NC(=O)[C@H](CSSC[C@H](NC(=O)[C@@H]4CCCN4C(=O)[C@H](CCCCN)NC(=O)[C@H](CC(N)=O)NC1=O)C(=O)N[C@@H](CCCCN)C(=O)N[C@@H]([C@@H](C)O)C(=O)N[C@@H](Cc1c[nH]cn1)C(=O)N[C@@H](CC(=O)O)C(=O)N[C@@H](CC(=O)O)C(=O)N3)NC(=O)[C@H](C)NC(=O)[C@H](CCC(N)=O)NC2=O [3B3] (H-HADPICNKPCKTHDDCSGAWFCQACYYATWSCGPYVG-NH2; disulfide 6-22, 10-25, 16-32) | no detectable cell permeability
